Data published in US20070105910A1, “Medicinal composition” (priority 2003, published 2007).
Structures can show the parent of a compound that is named as a salt.

Assay: Repeated oral administration test for 10 days using rats: blood hemoglobin (Hb)
Format: in vivo
Conditions: SD rats; after 10 days oral administration; pioglitazone hydrochloride 240 mg/kg/day, benfotiamine 100 mg/kg/day where combined
Experimental: After termination of the administration, the blood was collected from the rats and the hemoglobin (Hb) value was determined. Then, the rats were killed, and their hearts were weighed (relative weight).

Structure (SMILES): CCc1ccc(CCOc2ccc(CC3SC(=O)NC3=O)cc2)nc1 (stereo not shown) [Pioglitazone HCl, pioglitazone hydrochloride]
- Blood Hb conc. after administration: 13.6 g/dL
